For the first assay, the target named is T1, human Cdc7/human ASK conjugated protein (Homo sapiens, UniProt O00311).
T1 construct: purchased CARNA BIOSCIENCES
T1 sequence (O00311 whole entry): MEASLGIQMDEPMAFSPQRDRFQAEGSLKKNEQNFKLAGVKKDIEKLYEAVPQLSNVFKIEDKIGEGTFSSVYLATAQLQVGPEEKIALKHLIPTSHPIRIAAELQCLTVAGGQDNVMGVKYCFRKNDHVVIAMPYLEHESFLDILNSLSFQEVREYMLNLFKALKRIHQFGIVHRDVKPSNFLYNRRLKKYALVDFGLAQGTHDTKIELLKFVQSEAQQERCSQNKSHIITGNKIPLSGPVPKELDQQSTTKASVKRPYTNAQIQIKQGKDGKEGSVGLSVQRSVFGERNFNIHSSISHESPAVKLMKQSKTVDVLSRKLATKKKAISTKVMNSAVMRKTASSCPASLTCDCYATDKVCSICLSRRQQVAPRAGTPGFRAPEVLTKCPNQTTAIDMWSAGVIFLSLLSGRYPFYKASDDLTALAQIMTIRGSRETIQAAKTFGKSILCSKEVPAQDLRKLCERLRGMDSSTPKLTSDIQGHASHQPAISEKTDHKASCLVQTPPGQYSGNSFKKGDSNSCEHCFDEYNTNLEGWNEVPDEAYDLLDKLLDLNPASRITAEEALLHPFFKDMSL
T1 sequence (Q9UBU7 whole entry partner): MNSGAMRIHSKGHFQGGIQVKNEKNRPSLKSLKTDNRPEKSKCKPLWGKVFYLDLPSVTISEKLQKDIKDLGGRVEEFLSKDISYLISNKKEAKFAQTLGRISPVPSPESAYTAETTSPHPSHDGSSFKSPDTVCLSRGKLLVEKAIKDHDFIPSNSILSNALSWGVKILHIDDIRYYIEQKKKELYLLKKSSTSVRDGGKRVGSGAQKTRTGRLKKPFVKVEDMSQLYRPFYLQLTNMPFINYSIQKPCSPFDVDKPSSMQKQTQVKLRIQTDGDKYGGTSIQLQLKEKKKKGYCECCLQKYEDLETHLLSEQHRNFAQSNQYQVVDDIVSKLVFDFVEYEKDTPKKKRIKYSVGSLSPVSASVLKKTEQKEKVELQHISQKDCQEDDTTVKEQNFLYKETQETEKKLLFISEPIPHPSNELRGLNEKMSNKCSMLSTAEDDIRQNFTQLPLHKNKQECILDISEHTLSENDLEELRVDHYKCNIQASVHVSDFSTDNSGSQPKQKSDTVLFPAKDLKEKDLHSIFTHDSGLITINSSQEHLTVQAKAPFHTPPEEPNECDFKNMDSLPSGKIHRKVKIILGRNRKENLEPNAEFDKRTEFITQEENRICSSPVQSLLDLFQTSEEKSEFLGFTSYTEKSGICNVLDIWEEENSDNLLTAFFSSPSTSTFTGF
Put plainly: Cdc7 protein kinase inhibitory action (Cdc7-ASK kinase activity, 32P-labeled MCM2). The format is biochemical. The note with it: substrate mouse MCM2-4(his)-6-7(his) conjugated protein, 0.1 mM ATP, 30° C. for 45 minutes; read-out: Activity (uM) ELISA (IC50). Background: In an ELISA, binding on a coated surface is turned into a signal by an enzyme label.
`Cc1cc(OCCN2CCOCC2)ccc1/N=C1/NC(=O)/C(=C/c2c[nH]c3ncccc23)S1` [Compound 9, (2Z,5Z)-2-{4-(2-morpholino)ethoxy-2-metlhylphenyl}azamethylene-5-(1H-pyrrolo[2,3-b]pyridin-3-yl)methylene-1,3-thiazolidin-4-one]: the IC50 amounted to 0.0017 µM.
On the same count and under the same terms, to “(2Z,5Z)-2-{4-(1-methyl-piperidin-4-yl)oxy-2-methylphenyl}azamethylene-5-(1H-pyrrolo[2,3-b]pyridin-3-yl)methylene-1,3-thiazolidin-4-one [Compound 8]” belongs 0.0011 µM.

For a further assay, the target named is T1, human Cdc7/human ASK conjugated protein. The description is as above. The note with it: substrate mouse MCM2-4(his)-6-7(his) conjugated protein, 0.1 mM ATP, 30° C. for 45 minutes; read-out: Activity (uM) ELISA (IC50). In kind it is biochemical. The source holds these as a separate data set. How it is done:
Cdc7 protein kinase inhibitory action of the (di)azaindole derivatives shown in Table 4 was evaluated according to the following operations.
As a substrate for evaluating the enzymatic activity, mouse MCM2-4(his)-6-7 (his) conjugated protein was synthesized. First, the following genes were cloned into a pAcUW31 vector (Pharmingen).
Mouse MCM2 (Genbank/EMBL No. D86725);
N-His-mouse MCM4 (Genbank/EMBL No. D26089, a His6 tag was added to an N-terminal);
Mouse MCM6 (Genbank/EMBL No. D86726), and
N-His-mouse MCM7 (Genbank/EMBL No. D26091, a His6 tag was added to an N-terminal).
The Mouse MCM2 gene and the N-His-mouse MCM7 gene were inserted into the BamHI site and the EcoRI site of the pAcUW31 vector (Mom2-7 Vector), respectively. The mouse MCM6 gene and the N-His-mouse MCM4 gene were inserted into the BamHI site and the EcoRI site of the pAcUW31 vector (MGm-4-6 Vector), respectively. Then, in order to produce a recombinant mouse MCM2-7 (his) and mouse MCM4 (his)-6 Baculovirus, BaculoGold AoNPV Baculovirus DNA (BD/Pharmingen) and an Mcm2-7 Vector or an Mcm-4-6 Vector were cotransfected to SD insect cells. The obtained Mcm2-7 and Mom-4-6 virus were coinfected to Hi5 insect cells. Thereby, a mouse MCM2-4 (his)-6-7 (his) conjugated protein was obtained. Purified mouse MCM2-4 (his)-6-7 (his) conjugated protein (0.5 μg) was used as a substrate.
The substrate (mouse MCM2-4(his)-6-7(his) conjugated protein) (0.5 μg) and kinase enzyme (human Cdc7/human ASK conjugated protein, CARNA BIOSCIENCES) (0.1 μg) were mixed in a microtube. A kinase reaction buffer containing 0.1 μL of γ-^32P ATP (Perkin Elmer) was added as a tracer into the same microtube. The composition of the kinase buffer includes the followings.
40 mM HEPES-KOH buffer pH 7.6,
Furthermore, 0.5 μL of each of the test compounds ((di)azaindole derivatives 10 μM, 100 μM, and 1000 μM, respectively) was added and reacted at 30° C. for 45 minutes. After the reaction, the substrate was separated by SDS-PAGE method, and protein was stained by the silver staining method (2D-silver staining reagent H “Daiichi,” Daiichi Pure Chemicals Co., Ltd.).
The radioactivity of ^32P-labeled MCM2 protein was detected by autoradiography, and the radioactivity of the band of MCM2 protein was measured by a liquid scintillation counter (LSC-6100, ALOKA). As to the Cdc7-ASK kinase activity, the radioactivity at the time when the each of the test compounds was added was calculated in percent when the radioactivity at the time when DMSO (0.5 μL) was added instead of the test compound (0.5 μL) that had been added immediately before the reaction was made to be 100%. Based on the obtained results, IC 50 value of each test compound was calculated. IC50 with respect to Cdc7-ASK kinase of the main (di)azaindole derivatives shown in Table 5 was about 0.001 μM to 0.008 μM.
Take `Cc1cc(OCCN(C)C)ccc1/N=C1/NC(=O)/C(=C/c2c[nH]c3ncncc23)S1` [Compound 11, (2Z,5Z)-2-{4-(2-dimethylamino)ethoxy-2-methylphenyl}azamethylene-5-(7H-pyrrolo[2,3-d]pyrimidin-5-yl)methylene-1,3-thiazolidin-4-one]: the IC50 came to 0.005 µM.
As to `Cc1ccc(/N=C2/NC(=O)/C(=C/c3c[nH]c4ncccc34)S2)c(C)c1` [Compound 2, (2Z,5Z)-2-(2,4-dimethylphenyl)azamethylene-5-(1H-pyrrolo[2,3-b]pyridin-3-yl)methylene-1,3-thiazolidin-4-one], the half-inhibitory concentration (IC50) was 0.001 µM.
Same read-out and setting: to `Cc1cc(OCCN2CCN(C)CC2)ccc1/N=C1/NC(=O)/C(=C/c2c[nH]c3ncccc23)S1` [Compound 7, (2Z,5Z)-2-[4-{2-(4-methylpiperazin-1-yl)}ethoxy-2-methylphenyl]azamethylene-5-(1H-pyrrolo[2,3-b]pyridin-3-yl)methylene-1,3-thiazolidin-4-one] belongs 0.0021 µM.
Still for that read-out and setting: the value for `Cc1cc(OCCN(C)C)ccc1/N=C1/NC(=O)/C(=C/c2c[nH]c3ncccc23)S1` [Compound 5, (2Z,5Z)-2-{4-(2-dimethylamino)ethoxy-2-methylphenyl}azamethylene-5-(1H-pyrrolo[2,3-b]pyridin-3-yl)methylene-1,3-thiazolidin-4-one] was 0.0019 µM.
The same measure, in the same setting: to `Cc1cc(OC2CCN(C)C2)ccc1/N=C1/NC(=O)/C(=C/c2c[nH]c3ncccc23)S1` (centres unmarked) [Compound 6, (2Z,5Z)-2-{4-(1-methylpyrrolidin-3-yl)oxy-2-methylphenyl}azamethylene-5-(1H-pyrrolo[2,3-b]pyridin-3-yl)methylene-1,3-thiazolidin-4-one] belongs 0.003 µM.
As to `Cc1cc(O)ccc1/N=C1/NC(=O)/C(=C/c2c[nH]c3ncccc23)S1` [Compound 3, (2Z,5Z)-2-(4-hydroxy-2-methylphenyl)azamethylene-5-(1H-pyrrolo[2,3-b]pyridin-3-yl)methylene-1,3-thiazolidin-4-one], the IC50 is 0.0014 µM.
For the molecule `CN1CCC(Oc2ccc(/N=C3/NC(=O)/C(=C/c4c[nH]c5ncncc45)S3)c(C(F)(F)F)c2)C1` (centres unmarked) [Compound 20, (2Z,5Z)-2-{4-(1-methylpyrrolidin-3-yl)oxy-2-trifluoromethylphenyl}azamethylene-5-(7H-pyrrolo[2,3-d]pyrimidin-5-yl)methylene-1,3-thiazolidin-4-one], the concentration for half-maximal inhibition (IC50) amounted to 0.007 µM.
Still for that read-out and setting: to `COc1ccc(/N=C2/NC(=O)/C(=C/c3c[nH]c4ncccc34)S2)c(C)c1` [Compound 1, (2Z,5Z)-2-(4-methoxy-2-methylphenyl)azamethylene-5-(1H-pyrrolo[2,3-b]pyridin-3-yl)methylene-1,3-thiazolidin-4-one] belongs 0.0012 µM; to `O=C1N/C(=N/c2ccc(C(=O)O)cc2)S/C1=C\c1c[nH]c2ncccc12` [Compound 4, (2Z,5Z)-2-(4-carboxyphenyl)azamethylene-5-(1H-pyrrolo[2,3-b]pyridin-3-yl)methylene-1,3-thiazolidin-4-one], 0.018 µM.
Still for that read-out and setting: to `CN(C)CCOc1ccc(/N=C2/NC(=O)/C(=C/c3c[nH]c4ncccc34)S2)c(C(F)(F)F)c1` [Compound 13, (2Z,5Z)-2-{4-(2-dimethylamino)ethoxy-2-trifluoromethylphenyl}azamethylene-5-(1H-pyrrolo[2,3-b]pyridin-3-yl)methylene-1,3-thiazolidin-4-one] belongs 0.003 µM; to `Cc1cc(OC2CCN(C)C2)ccc1/N=C1/NC(=O)/C(=C/c2c[nH]c3ncncc23)S1` (centres unmarked) [Compound 15, (2Z,5Z)-2-{4-(1-methylpyrrolidin-3-yl)oxy-2-methylphenyl}azamethylene-5-(7H-pyrrolo[2,3-d]pyrimidin-5-yl)methylene-1,3-thiazolidin-4-one], 0.008 µM; to `Cc1cc(OC2CCN(C)CC2)ccc1/N=C1/NC(=O)/C(=C/c2c[nH]c3ncncc23)S1` [Compound 16, (2Z,5Z)-2-{4-(1-methyl-piperidin-4-yl)oxy-2-methylphenyl}azamethylene-5-(7H-pyrrolo[2,3-d]pyrimidin-5-yl)methylene-1,3-thiazolidin-4-one], 0.006 µM.
For the molecule `CN(C)CCOc1ccc(/N=C2/NC(=O)/C(=C/c3c[nH]c4ncncc34)S2)c(Cl)c1` [Compound 17, (2Z,5Z)-2-{2-chloro-4-(2-dimethylamino)ethoxyphenyl}azamethylene-5-(7H-pyrrolo[2,3-d]pyrimidin-5-yl)methylene-1,3-thiazolidin-4-one], the IC50 came out at 0.002 µM.
Same read-out and setting: to `CN1CCC(Oc2ccc(/N=C3/NC(=O)/C(=C/c4c[nH]c5ncncc45)S3)c(Cl)c2)C1` (centres unmarked) [Compound 18, (2Z,5Z)2-{2-chloro-4-(1-methylpyrrolidin-3-yl)oxyphenyl}azamethylene-5-(7H-pyrrolo[2,3-d]pyrimidin-5-yl)methylene-1,3-thiazolidin-4-one] belongs 0.002 µM; to `CN1CCC(Oc2ccc(/N=C3/NC(=O)/C(=C/c4c[nH]c5ncccc45)S3)c(C(F)(F)F)c2)CC1` [Compound 23, (2Z,5Z)-2-{4-(1-methyl-piperidin-4-yl)oxy-2-trifluoromethylphenyl}azamethylene-5-(1H-pyrrolo[2,3-b]pyridm-3-yl)methylene-1,3-thiazolidin-4-one], 0.003 µM.
The same measure, in the same setting: to `CN(C)CCOc1ccc(/N=C2/NC(=O)/C(=C/c3c[nH]c4ncncc34)S2)c(C(F)(F)F)c1` [Compound 19, (2Z,5Z)-2-{4-(2-dimethylamino)ethoxy-2-trifluoromethylphenyl}azamethylene-5-(7H-pyrrolo[2,3-d]pyrimidin-5-yl)methylene-1,3-thiazolidin-4-one] belongs 0.006 µM.
`CN(C)CCOc1ccc(/N=C2/NC(=O)/C(=C/c3c[nH]c4ncccc34)S2)c(Cl)c1` [Compound 10, (2Z,5Z)-2-{2-chloro-4-(2-dimethylamino)ethoxyphenyl}azamethylene-5-(1H-pyrrolo[2,3-b]pyridin-3-yl)methylene-1,3-thiazolidin-4-one]: the IC50 is 0.002 µM.
Same read-out and setting: the value for `CN1CCC(Oc2ccc(/N=C3/NC(=O)/C(=C/c4c[nH]c5ncncc45)S3)c(Cl)c2)CC1` [Compound 21, (2Z,5Z)-2-{2-chloro-4-(1-methyl-piperidin-4-yl)oxyphenyl}azamethylene-5-(7H-pyrrolo[2,3-d]pyrimidin-5-yl)methylene-1,3-thiazolidin-4-one] was 0.003 µM.
The same measure, in the same setting: the value for `CN1CCC(Oc2ccc(/N=C3/NC(=O)/C(=C/c4c[nH]c5ncccc45)S3)c(Cl)c2)CC1` [Compound 22, (2Z,5Z)-2-{2-chloro-4-(1-methyl-piperidin-4-yl)oxyphenyl}azamethylene-5-(1H-pyrrolo[2,3-b]pyridin-3-yl)methylene-1,3-thiazolidin-4-one] was 0.001 µM; that for `CN1CCC(Oc2ccc(/N=C3/NC(=O)/C(=C/c4c[nH]c5ncccc45)S3)c(C(F)(F)F)c2)C1` (centres unmarked) [Compound 14, (2Z,5Z)-2-{4-(1-methylpyrrolidin-3-yl)oxy-2-trifluoromethylphenyl}azamethylene-5-(1H-pyrrolo[2,3-b]pyridin-3-yl)methylene-1,3-thiazolidin-4-one] was 0.002 µM; that for `CN1CCC(Oc2ccc(/N=C3/NC(=O)/C(=C/c4c[nH]c5ncccc45)S3)c(Cl)c2)C1` (centres unmarked) [Compound 12, (2Z,5Z)-2-{2-chloro-4-(1-methylpyrrolidin-3-yl)oxyphenyl}azamethylene-5-(1H-pyrrolo[2,3-b]pyridin-3-yl)methylene-1,3-thiazolidin-4-one] was 0.001 µM.

As a reminder, the IC50 is the concentration needed to halve the response being measured.

Values taken from patent US20120135989A1, “AZAINDOLE DERIVATIVE” (CRYSTALGENOMICS, INC., priority 2010, published 2012).
